# How the values were obtained:
# [1] = test system: POLCO; assay: Post-emergence herbicidal effect, greenhouse pot test; assay type: in vivo, Fallopia convolvulus; settings: 320 g/ha
# In short: (§1)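 Greenhouse pot plants in sandy loam receive a one-leaf-stage spray at 20 to 320 g/ha. Activity is assessed visually around 3 weeks afterwards on a 0–100% scale, where 100% means the plants have died.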
# [2] = test system: VERPE; assay: as above; assay type: in vivo, Veronica persica; settings: 320 g/ha
# In short: as §1
# [3] = test system: PHBPU; assay: as above; assay type: in vivo, Ipomoea purpurea
# In short: as §1
# [4] = test system: ZEAMX; assay: Post-emergence herbicidal effect and crop plant compatibility, greenhouse pot test; assay type: in vivo, Zea mays; settings: one-leaf stage, rated visually after about 3 weeks vs untreated controls
# In short: as §1
# [5] = test system: TRZAS; assay: as above; assay type: in vivo, Triticum aestivum; settings: for Post-emergence effect at 20 g/ha against TRZAS in %: one-leaf stage, rated visually after about 3 weeks vs untreated controls; for Post-emergence effect against TRZAS: visual rating about 3 weeks after treatment, crop plant
# In short: as §1
# [6] = test system: GLXMA; assay: as above; assay type: in vivo, Glycine max; settings: 20 g/ha, visual rating about 3 weeks after treatment, crop plant
# Excerpt: (§2) • ALOMY: Alopecurus myosuroides SETVI: Setaria viridis • AVEFA: Avena fatua POLCO: Fallopia convolvulus • AMARE: Amaranthus retroflexus ECHCG: Echinochloa crus-galli • LOLRJ: Lolium rigidum STEME: Stellaria media • VERPE: Veronica persica MATIN: Tripleurospermum inodorum • DIGSA: Digitaria sanguinalis ABUTH: Abutylon threophrasti • TRZAS: Triticum aestivum VIOTR: Viola tricolor • BRSNW: Brassica napus ZEAMX: Zea mays • PHBPU: Ipomoea purpurea GLXMA: Glycine max • ORYSA: Oryza sativa HORMU: Hordeum murinum
# Seeds of monocotyledonous and dicotyledonous weeds and crop plants are placed in sandy loam in plastic or organic planting pots, covered with soil and cultivated in a greenhouse under controlled growth conditions. 2 to 3 weeks after sowing, the trial plants are treated at the one-leaf stage. The compounds of the invention, formulated in the form of wettable powders (WP) or as emulsion concentrates (EC), are then sprayed onto the green parts of the plants as aqueous suspension or emulsion with addition of 0.5% additive at a water application rate of 600 l/ha (converted). After the test plants have been kept in the greenhouse under optimum growth conditions for about 3 weeks, the activity of the preparations is rated visually in comparison to untreated controls. For example, 100% activity=the plants have died, 0% activity=like control plants.
# Tables 20a to 38c below show the effects/crop compatibilities of selected compounds of the general formula (I) on various harmful plants at an application rate corresponding to 20 to 320 g/ha, which were obtained by the trial procedure specified above.
# [7] = test system: AVEFA; assay: Post-emergence herbicidal effect, greenhouse pot test; assay type: in vivo, Avena fatua; settings: 320 g/ha, visual rating about 3 weeks after treatment
# In short: as §1
# [8] = test system: AMARE; assay: as above; assay type: in vivo, Amaranthus retroflexus; settings: 320 g/ha, visual rating about 3 weeks after treatment
# In short: as §1
# [9] = test system: ABUTH; assay: as above; assay type: in vivo, Abutilon theophrasti; settings: visual rating about 3 weeks after treatment
# In short: as §1
# [10] = test system: SETVI; assay: as above; assay type: in vivo, Setaria viridis; settings: Setaria viridis, 504 h, read-out: Post-emergence effect against SETVI in %
# In short: as §1
# [11] = test system: ECHCG; assay: as above; assay type: in vivo, Echinochloa crus-galli; settings: Echinochloa crus-galli, 504 h, read-out: Post-emergence effect against ECHCG in %
# In short: as §1
# [12] = test system: ECHCG; assay: Pre-emergence herbicidal effect, greenhouse pot test; assay type: in vivo, Echinochloa crus-galli; settings: Echinochloa crus-galli, 504 h, 320 g/ha, scored visually after about 3 weeks vs untreated controls, read-out: Pre-emergence effect at 320 g/ha against ECHCG in %
# Excerpt: (§3) Seeds of monocotyledonous and dicotyledonous weed plants and crop plants are placed in plastic or organic planting pots and covered with soil. The compounds of the invention, formulated in the form of wettable powders (WP) or as emulsion concentrates (EC), are then applied to the surface of the covering soil as aqueous suspension or emulsion with addition of 0.5% additive at a water application rate equivalent to 600 l/ha. After the treatment, the pots are placed in a greenhouse and kept under good growth conditions for the trial plants. After about 3 weeks, the effect of the preparations is scored visually in comparison with untreated controls as percentages. For example, 100% activity=the plants have died, 0% activity=like control plants.
# (§4) Tables 1a to 19c below show the effects/crop compatibilities of selected compounds of the general formula (I) on various harmful plants at an application rate corresponding to 20 to 320 g/ha, which were obtained by the trial procedure specified above.
# as §2
# [13] = test system: ALOMY; assay: Post-emergence herbicidal effect, greenhouse pot test; assay type: in vivo, Alopecurus myosuroides; settings: Alopecurus myosuroides, 504 h, visual rating about 3 weeks after treatment, read-out: Post-emergence effect against ALOMY
# In short: as §1
# [14] = test system: PHBPU; assay: Pre-emergence herbicidal effect, greenhouse pot test; assay type: in vivo, Ipomoea purpurea; settings: 320 g/ha, scored visually after about 3 weeks vs untreated controls
# Excerpt: as §3, §4, §2
# [15] = test system: MATIN; assay: as above; assay type: in vivo, Tripleurospermum inodorum; settings: scored visually after about 3 weeks vs untreated controls
# Excerpt: as §3, §4, §2
# [16] = test system: MATIN; assay: Post-emergence herbicidal effect, greenhouse pot test; assay type: in vivo, Tripleurospermum inodorum; settings: Tripleurospermum inodorum, 504 h, read-out: Post-emergence effect against MATIN in %
# In short: as §1
# [17] = test system: POLCO; assay: Pre-emergence herbicidal effect, greenhouse pot test; assay type: in vivo, Fallopia convolvulus; settings: Fallopia convolvulus, 504 h, 320 g/ha, scored visually after about 3 weeks vs untreated controls, read-out: Pre-emergence effect at 320 g/ha against POLCO in %
# Excerpt: as §3, §4, §2
# [18] = test system: AMARE; assay: as above; assay type: in vivo, Amaranthus retroflexus; settings: scored visually after about 3 weeks vs untreated controls
# Excerpt: as §3, §4, §2
# [19] = test system: ALOMY; assay: as above; assay type: in vivo, Alopecurus myosuroides; settings: 320 g/ha, scored visually after about 3 weeks vs untreated controls
# Excerpt: as §3, §4, §2
# [20] = test system: VIOTR; assay: Post-emergence herbicidal effect, greenhouse pot test; assay type: in vivo, Viola tricolor; settings: Viola tricolor, 504 h, 320 g/ha, read-out: Post-emergence effect against VIOTR in %
# In short: as §1
# [21] = test system: GLXMA; assay: Pre-emergence herbicidal effect and crop plant compatibility, greenhouse pot test; assay type: in vivo, Glycine max; settings: 80 g/ha, scored visually after about 3 weeks vs untreated controls
# Excerpt: as §3, §4, §2
# [22] = test system: TRZAS; assay: as above; assay type: in vivo, Triticum aestivum; settings: 80 g/ha, scored visually after about 3 weeks vs untreated controls
# Excerpt: as §3, §4, §2
structure (smiles),measurement,setting,value
COC(=O)C(OC)Oc1nn(-c2ccccc2F)c(-c2ccc(F)nc2)c1C(F)(F)C(F)(F)F (stereo not shown) [Example I-60],Post-emergence effect against POLCO in %,[1],90%
same,Post-emergence effect against VERPE in %,[2],80%
same,Post-emergence effect against PHBPU in %,[3]; 320 g/ha,90%
same,Post-emergence effect at 20 g/ha against ZEAMX in %,[4],0%
same,Post-emergence effect at 80 g/ha against ZEAMX in %,[4]; 80 g/ha,0%
same,Post-emergence effect at 20 g/ha against TRZAS in %,[5],0%
same,Post-emergence effect against TRZAS,[5]; 80 g/ha,0%
same,Post-emergence effect against GLXMA,[6],10%
same,Post-emergence effect against AVEFA,[7],80%
COC(=O)C(OC)Oc1nn(-c2cccc(C)c2F)c(-c2ccc(F)nc2)c1C1CC1 (stereo not shown) [Example I-93],Post-emergence effect against PHBPU in %,[3]; 320 g/ha,80%
same,Post-emergence effect at 20 g/ha against ZEAMX in %,[4],10%
same,Post-emergence effect at 20 g/ha against TRZAS in %,[5],0%
same,Post-emergence effect against TRZAS,[5]; 80 g/ha,10%
same,Post-emergence effect against TRZAS,[5]; 320 g/ha,20%
same,Post-emergence effect against AMARE,[8],90%
same,Post-emergence effect against ABUTH,[9]; 80 g/ha,80%
same,Post-emergence effect against ABUTH,[9]; 320 g/ha,90%
same,Post-emergence effect against GLXMA,[6],20%
COC(=O)C(OC)Oc1nn(-c2ncccc2F)c(-c2ccccc2)c1Br (stereo not shown) [Example I-06],pest or weed control at 80 g/ha,[10]; 80 g/ha,80%
same,pest or weed control at 320 g/ha,[10]; 320 g/ha,80%
same,pest or weed control at 80 g/ha,[11]; 80 g/ha,80%
same,pest or weed control at 320 g/ha,[11]; 320 g/ha,80%
same,pest or weed control at 320 g/ha,[12],100%
same,pest or weed control at 80 g/ha,[13]; 80 g/ha,90%
same,pest or weed control at 320 g/ha,[13]; 320 g/ha,90%
same,Pre-emergence effect at 320 g/ha against PHBPU in %,[14],90%
same,pest or weed control at 80 g/ha,"[3]; Ipomoea purpurea, 504 h, 80 g/ha, read-out: Post-emergence effect against PHBPU in %",80%
same,pest or weed control at 320 g/ha,"[3]; Ipomoea purpurea, 504 h, 320 g/ha, read-out: Post-emergence effect against PHBPU in %",80%
same,Pre-emergence effect at 80 g/ha against MATIN in %,[15]; 80 g/ha,80%
same,pest or weed control at 320 g/ha,"[15]; Tripleurospermum inodorum, 504 h, 320 g/ha, read-out: Pre-emergence effect at 320 g/ha against MATIN in %",90%
same,pest or weed control at 80 g/ha,[16]; 80 g/ha,80%
same,pest or weed control at 320 g/ha,[16]; 320 g/ha,80%
same,pest or weed control at 320 g/ha,[17],80%
same,Pre-emergence effect at 80 g/ha against AMARE in %,[18]; 80 g/ha,90%
same,pest or weed control at 320 g/ha,"[18]; Amaranthus retroflexus, 504 h, 320 g/ha, read-out: Pre-emergence effect at 320 g/ha against AMARE in %",100%
same,Pre-emergence effect at 320 g/ha against ALOMY in %,[19],90%
same,pest or weed control at 320 g/ha,[20],80%
same,Pre-emergence effect at 80 g/ha against GLXMA in %,[21],10%
same,pest or weed control at 320 g/ha,"[7]; Avena fatua, 504 h, read-out: Post-emergence effect against AVEFA",80%
same,Pre-emergence effect at 80 g/ha against TRZAS in %,[22],10%

# — patent publication US20240391862A1, “(1,4,5-TRISUBSTITUTED-1H-PYRAZOL-3-YL)OXY-2-ALKOXY ALKYL ACIDS AND THEIR DERIVATIVES, THEIR SALTS AND THEIR USE AS HERBICIDAL AGENTS” (Bayer AKtiengesellschaft, priority 2021, published 2024)
